Experiments:
[1] = test system: MAO; assay: Inhibition of MAO - In vitro (14C p-tyramine substrate, partially purified rat brain mitochondria); assay type: biochemical; settings: tested as hydrochloride salt, read-out: IC50 (MAO inhibitory activity - In vitro)
Source text: (A) The ability of a compound of Formula I or II to inhibit MAO can be determined in vitro by the method of A. Christmas et al, Br. J. Pharmacol. 45, 490 (1972) in partially purified mitochondria from rat brain using ^14 C p-tyramine as the substrate.

[2] = test system: MAO-B versus MAO-A; assay: Selectivity of MAO inhibitors - In vitro (14C 5-hydroxytryptamine for MAO-A, 14C phenethylamine for MAO-B); assay type: biochemical, rat; settings: for Selectivity (ratio of inhibitory activity against MAO-B versus MAO-A): in vitro, rat brain mitochondria
Protocol: Mitochondria are prepared from rat brain by homogenation in phosphate buffer (0.1 M, pH 7.2) followed by differential centrifugation. The mitochondria are suspended in the same buffer, the test compound is added at the desired concentration, and the system is incubated. […] Christmas, et al, supra).
Selectivity is expressed as the ratio of the inhibitory activity against MAO-B versus the inhibitory activity against MAO-A.

[3] = test system: MAO; assay: Inhibition of MAO - Ex vivo, rat (14C p-tyramine substrate); assay type: in vivo; settings: for % Inhibition of MAO - Brain: 18 hr
Protocol: (§1) The ability of a compound of Formula I or II to inhibit MAO can be determined ex vivo by the following procedure:
The test compound is administered intraperitoneally (ip), intravenously (iv), or orally (po) to rats or mice and the animals are killed at various times after treatment. […] MAO activity is determined in the homogenates using ^14 C p-tyramine, as the substrate. […] Selectivity can be determined by repeating the above-described test using either ^14 C 5-hydroxytryptamine (for MAO-A) or ^14 C phenethylamine (for MAO-B) as the substrate for determining the % inhibition

[4] = test system: heart rate response to p-tyramine; assay: Cheese effect: potentiation of heart-rate response to p-tyramine in rats; settings: rat
Protocol: The following test procedure can be employed to assess the potential of a compound of Formula I or II for producing the "cheese effect":
Rats are administered an intravenous injection of the test compound at various dosage levels, and 30 minutes later the rats are challenged with several intravenous or intraduodenal dodes of p-tyramine. The heart rate response is measured.

[5] = test system: MAO; assay: Inhibition of MAO - Ex vivo, mouse (14C p-tyramine substrate); assay type: in vivo; settings: 24 hr
Protocol: as §1
The test compound is administered intraperitoneally (ip), intravenously (iv), or orally (po) to rats or mice and the animals are killed at various times after treatment. The brain, heart, liver, or duodenum is removed and either a crude homogenate or a mitochondrial fraction, described in Example 28, Part A, is prepared. MAO activity is determined in the homogenates using ^14 C p-tyramine, as the substrate. Table III gives the results of the testing of certain compounds according to the above-described procedure. Selectivity can be determined by repeating the above-described test using either ^14 C 5-hydroxytryptamine (for MAO-A) or ^14 C phenethylamine (for MAO-B) as the substrate for determining the % inhibition

[6] = test system: MAO; assay: Inhibition of MAO - In vivo: change in levels of endogenous MAO substrates and metabolites in mouse brain; design: species or system mice; settings: 2 hr
Protocol: The ability of a compound of Formula I or II to inhibit MAO can be determined in vivo in mice according to the following procedure, wherein changes in concentration of the endogenous MAO substrates and the metabolites thereof are assayed.
Mice are given an intraperitoneal injection of the test compound and 2 hours or 16 hours later the animals are killed. The levels of dopamine, dihydroxyphenylacetic acid (DOPAC), 5-hydroxytryptamine (5-HT), and 5-hydroxyindole-3-acetic acid (5-HIAA) in brain homogenates are determined by the method of J. Wagner et al, J. Chromatog. 164, 41 (1979) and P. Bey et al, Br. J. Pharmac., 70, 571 (1980).

[7] = test system: depression; settings: literature; cited from earlier work
[8] = test system: cheese effect; settings: low dosages; literature; cited from earlier work
[9] = test system: Parkinson's disease; settings: literature; cited from earlier work
[10] = test system: MAO-A and MAO-B; settings: literature; cited from earlier work

Question: Which IC50 [1] does the source give for `NC/C(=C/F)c1ccc(Cl)cc1` [(E)-2-(4'-Chloro)phenyl-3-fluoroallylamine] here?
Answer: Its IC50 is 0.02 µM.

Question: What about the “Selectivity (ratio of inhibitory activity against MAO-B versus MAO-A)” value [2] of the same compound?
Answer: Its value is 10.

Question: Which IC50 [1] does the source give for `COc1ccc(C/C(=C\F)CN)cc1` [(E)-2-(4'-Methoxy)benzyl-3-fluoroallylamine] here?
Answer: The IC50 was 3 µM.

Question: And the “selectivity for MAO-B as compared to MAO-A (in words)” value [2]?
Answer: Its value is “marked selectivity for MAO-B as compared to MAO-A”.

Question: What about the “Selectivity (ratio of inhibitory activity against MAO-B versus MAO-A)” value [2] of the same compound?
Answer: Its value is 500.

Question: With `COc1ccc(/C(=C\F)CN)cc1` [(E)-2-(4'-Methoxy)phenyl-3-fluoroallyl amine] as the compound, how does the “% Inhibition of MAO - Duodenum” value ([3]; 0.1 mg/kg iv, 2 hr) read?
Answer: Its value is 80%.

Question: What about the “% Inhibition of MAO - Heart” value ([3]; 0.1 mg/kg iv, 2 hr) of the same compound?
Answer: The value was 50%.

Question: And the “% Inhibition of MAO - Liver” value ([3]; 0.1 mg/kg iv, 2 hr)?
Answer: The value was 30%.

Question: What about the “% Inhibition of MAO - Brain” value ([3]; 1.0 mg/kg po) of the same compound?
Answer: The value was 86%.

Question: And the “% Inhibition of MAO - Brain” value ([3]; 5.0 mg/kg po)?
Answer: Its value is 97%.

Question: And the “Potentiation of heart-rate response to p-tyramine” value (shortened to “Potentiation … to p-tyramine”) ([4]; dose 0.1 (iv), p-tyramine i.d.)?
Answer: Its value is 2.0 fold.

Question: What about the “Potentiation … to p-tyramine” value ([4]; dose 0.1 (iv), p-tyramine i.v.) of the same compound?
Answer: The value was 1.4 fold.

Question: And the “Potentiation … to p-tyramine” value ([4]; dose 1.0 (iv), p-tyramine i.d.)?
Answer: The value was 4.6 fold.

Question: What about the “Potentiation … to p-tyramine” value ([4]; dose 1.0 (iv), p-tyramine i.v.) of the same compound?
Answer: The value was 5.2 fold.

Question: What about the “risk of producing the cheese effect (in words)” value ([4]; in vivo) of the same compound?
Answer: The value was “significantly decreased risk”.

Question: What does the source list for `NC/C(=C/F)Cc1ccccc1` [(E)-2-benzyl-3-fluoroallylamine, (E)-2-2-Benzyl-3-fluoroallylamine]?
Answer: IC50 [1]: 7.5 µM; selectivity for MAO-B as compared to MAO-A (in words) [2]: marked selectivity for MAO-B as compared to MAO-A; Selectivity (ratio of inhibitory activity against MAO-B versus MAO-A) [2]: 200

Question: With `NC/C(=C/Cl)c1ccccc1` [(E)-2-phenyl-3-chloroallylamine, (E)-2-Phenyl-3-chloroallylamine] as the compound, how does the IC50 [1] read?
Answer: Its IC50 is 100 µM.

Question: Which results are given for `NC/C(=C/F)c1ccccc1` [(E)-2-phenyl-3-fluoroallylamine, (E)-2-Phenyl-3-fluoroallylamine]?
Answer: IC50 [1]: 0.7 µM; Selectivity (ratio of inhibitory activity against MAO-B versus MAO-A) [2]: 10; % Inhibition of MAO - Duodenum ([3]; 0.1 mg/kg iv, 24 hr): 67%; % Inhibition of MAO - Heart ([3]; 0.1 mg/kg iv, 24 hr): 85%; % Inhibition of MAO - Liver ([3]; 0.1 mg/kg iv, 24 hr): 48%; % Inhibition of MAO - Brain ([5]; 0.5 mg/kg ip): 45%; % Inhibition of MAO - Heart ([5]; 0.5 mg/kg ip): 91%; % Inhibition of MAO - Brain ([5]; 1.0 mg/kg ip): 68%; % Inhibition of MAO - Heart ([5]; 1.0 mg/kg ip): 97%; % Change (compared to control) - 5-HIAA ([6]; 1 mg/kg ip): -35%; % Change (compared to control) - 5-HT ([6]; 1 mg/kg ip): +41%; % Change (compared to control) - DOPAC ([6]; 1 mg/kg ip): -67%; % Change (compared to control) - Dopamine ([6]; 1 mg/kg ip): +15%; % Change (compared to control) - 5-HIAA ([6]; 10 mg/kg ip): -90%; % Change (compared to control) - 5-HT ([6]; 10 mg/kg ip): +90%; % Change (compared to control) - DOPAC ([6]; 10 mg/kg ip): -92%; % Change (compared to control) - Dopamine ([6]; 10 mg/kg ip): +32%; % Change (compared to control) - 5-HIAA ([6]; 100 mg/kg ip): -91%; % Change (compared to control) - 5-HT ([6]; 100 mg/kg ip): +96%; % Change (compared to control) - DOPAC ([6]; 100 mg/kg ip): -95%; % Change (compared to control) - Dopamine ([6]; 100 mg/kg ip): +19%; Potentiation of heart-rate response to p-tyramine ([4]; dose 0.1 (iv), p-tyramine i.d.): 9.1 fold; Potentiation of heart-rate response to p-tyramine ([4]; dose 0.1 (iv), p-tyramine i.v.): 8.4 fold

Question: With `CCNC/C(=C/F)c1cccc(OC)c1` [(E)-N-Ethyl 2-(3'-methoxy)phenyl-3-fluoroallylamine] as the compound, how does the IC50 [1] read?
Answer: The IC50 was 3 µM.

Question: For `CCNC/C(=C/F)c1ccc(OC)c(OC)c1` [(E)-N-ethyl 2-(3',4'-dimethoxy)phenyl-3-fluoroallylamine], which IC50 [1] is on record?
Answer: The IC50 was 70 µM.

Question: For `NC/C(=C\F)c1ccccc1` [(Z)-2-phenyl-3-fluoroallylamine, (Z)-2-Phenyl-3-fluoroallylamine], which IC50 [1] is on record?
Answer: The IC50 was 1 µM.

Question: Which “% Inhibition of MAO - Duodenum” value ([3]; 1.0 mg/kg po, 2 hr) does the source give for `C#CCN(C)[C@H](C)Cc1ccccc1` [L-deprenyl, reference compound] here?
Answer: Its value is 62%.

Question: What about the “% Inhibition of MAO - Heart” value ([3]; 1.0 mg/kg po, 2 hr) of the same compound?
Answer: Its value is 48%.

Question: What about the “% Change (compared to control) - 5-HIAA” value ([6]; 10 mg/kg ip) of the same compound?
Answer: The value was “+9%”.

Question: And the “% Change (compared to control) - 5-HT” value ([6]; 10 mg/kg ip)?
Answer: The value was “+18%”.

Question: And the “% Change (compared to control) - DOPAC” value ([6]; 10 mg/kg ip)?
Answer: Its value is -21%.

Question: And the “% Change (compared to control) - Dopamine” value ([6]; 10 mg/kg ip)?
Answer: The value was “+10%”.

Question: What about the “clinical effectiveness as antidepressant (in words)” value [7] of the same compound?
Answer: Its value is “clinically effective antidepressant agents”.

Question: What about the “cheese effect (in words)” value [8] of the same compound?
Answer: Its value is “is not observed at the low dosages where preferential inhibition of MAO-B occurs”.

Question: And the “potentiation of L-DOPA in Parkinson's disease (in words)” value [9]?
Answer: The value was “potentiate L-DOPA for the treatment of Parkinson's disease without producing peripheral side effects”.

Question: What about the “Potentiation … to p-tyramine” value ([4]; dose 0.1 (iv), p-tyramine i.d.) of the same compound?
Answer: The value was “no effect”.

Question: What about the “Potentiation … to p-tyramine” value ([4]; dose 0.1 (iv), p-tyramine i.v.) of the same compound?
Answer: Its value is 1.3 fold.

Question: And the “Potentiation … to p-tyramine” value ([4]; dose 1.0 (iv), p-tyramine i.d.)?
Answer: The value was 2.1 fold.

Question: What about the “Potentiation … to p-tyramine” value ([4]; dose 1.0 (iv), p-tyramine i.v.) of the same compound?
Answer: The value was 2.2 fold.

Question: Which “preferential inhibition of MAO-A or MAO-B (in words)” value [10] does the source give for `Cc1cc(C(=O)NNCc2ccccc2)no1` [isocarboxazid] here?
Answer: The value was “not preferential in their action upon MAO”.

Question: For `NNCCc1ccccc1` [phenelzine], which “preferential inhibition of MAO-A or MAO-B (in words)” value [10] is on record?
Answer: The value was “not preferential in their action upon MAO”.

— US4454158A, “Allyl amine MAO inhibitors” (Merrell Toraude et Compagnie, priority 1981, dated 1984)
